`Cc1nc2ccccn2c(=O)c1CCN1CCN(c2cccc(Cl)c2)CC1` gave a melting point of 112 to 113 °C. Work on `COCc1nc(N)nc(N)c1-c1c(Cl)cccc1Cl` yielded a melting point of 204 to 207 °C. In the case of `CCCCCS(=O)(=O)NC(=O)/C=C/c1ccc(OCCOC)cc1Oc1ncc(Br)cc1C`, the melting point is reported as 160 °C. With `Clc1ccccc1-c1cnc2nncn2n1` the melting point was 145 to 148 °C. With `O=C(Nc1ccc(N2CCCC2)nc1)c1cc2cc(F)ccc2n1Cc1ccncc1` the melting point was 255 to 257 °C. `CC(C)(C)c1cc(-c2c[nH]c(=S)[nH]2)cc(C(C)(C)C)c1O` showed a melting point of 168 to 170 °C. With `C=C(C)CN(CC)c1nc(C)[nH]c2cc(-c3ccccc3)nc1-2` the melting point was 148 to 150 °C. Molecule `CC1(C)OCc2cc(Cl)cc(C(=O)c3cn(C(c4ccccc4)(c4ccccc4)c4ccccc4)cn3)c2O1` has a melting point of 200 to 205 °C. In the case of `Nc1nc(Cl)c(N)c(NCCO)n1`, the melting point is reported as 164 to 167 °C. `Clc1ccc2[nH]nc(I)c2c1` gave a melting point of 198 to 199 °C. Work on `COc1ccc(CNc2ccc(Cl)cc2C(=O)C(F)(F)F)cc1OC` yielded a melting point of 82 to 84 °C. `Cc1cc(C)c(Oc2ccc(C=NNC(N)=O)cc2)c(C)c1` showed a melting point of 189 to 190 °C. Work on `CCOC(=O)C(CSC12CC3CC(CC(C3)C1)C2)NC(C)C(=O)O` (configuration not stated) yielded a melting point of 68 to 72 °C. Molecule `O=C1CSCC2=C1C(c1ccc(F)c(Br)c1)n1nccc1N2` (configuration not stated) has a melting point of 160 to 163 °C. With `COc1ccc(-c2ccccn2)c(NC(=O)CC(C)N)c1` (configuration not stated) the melting point was 185 to 188 °C. In the case of `CC(C)N(Cc1nc(-c2ncn3c2CN(C)C(=O)c2ccccc2-3)no1)C(C)C`, the melting point is reported as 117 to 119 °C. For `CCc1nc(/C=C/c2cn(-c3ccccc3)nc2OCc2ccc(OCc3nc(-c4cccc(C(=O)NS(C)(=O)=O)c4)oc3C)c(OC)c2)cs1`, the melting point was 211 to 213 °C. `Cc1cc(C)cc(C(=O)N2CCC(N3CCC(OC(=O)c4cc(Cl)cc(Cl)c4)CC3)CC2Cc2ccccc2)c1` (configuration not stated) gave a melting point of 83.3 °C. Molecule `CCN(CC)c1ccc([N+](=O)[O-])c2nnoc12` has a melting point of 133 to 136 °C. For `CC1(C)Oc2cccc(O)c2O1`, the melting point was 88 to 90 °C. `CCOC(=O)CCc1cn(Cc2ccccc2)nc1O` gave a melting point of 75 to 76 °C. Molecule `Cc1c(CC(=O)N(C)C)oc2ccc(F)cc12` has a melting point of 88 to 90 °C. Work on `CCC(CC)c1ccc(OC)c2nc(Oc3c(C)cc(Cl)cc3Cl)n(C)c12` yielded a melting point of 130 to 131 °C. `COC(=O)c1nc(-c2cc(N(C)C)c(Cl)cc2F)cc(N)c1Cl` gave a melting point of 113 to 115 °C. For `COc1cc2c(cc1OC)C(c1ccc([N+](=O)[O-])cc1)NN(C1=NC(=O)C(C)S1)C(C)C2` (configuration not stated), the melting point was 213 to 214 °C. `CCCCn1c(=O)c2c(ncn2S(=O)(=O)c2ccc(C(C)(C)C)cc2)n(CCCC)c1=O` showed a melting point of 105 to 107 °C. For `COc1ccc(N2CCN(c3ccc(-n4c(C)c[nH]c4=O)cc3)CC2)cc1`, the melting point was greater than 300 °C. In the case of `COc1cc(CO)ncc1C`, the melting point is reported as 102 to 104 °C. `OCc1cnn(C(c2ccccc2)(c2ccccc2)c2ccccc2)c1` gave a melting point of 181 to 184 °C. Work on `COc1cc(N)c(Cl)cc1C(=O)NC1CCN(CCCC(=O)N2C(C)CCCC2C)CC1OC` (configuration not stated) yielded a melting point of 202 °C. `c1ccc(CN2CCC(COc3ccccc3)CC2)cc1` gave a melting point of 56 to 57 °C. For `CN1CCN(NC(=O)c2cc([N+](=O)[O-])cc3c2OCCO3)CC1`, the melting point was 210 °C. With `CC(C)(c1ccc(O)cc1)c1ccc(OC#N)cc1` the melting point was 75 °C. `CCOC(=O)C(=O)N1CCCc2c1ccc1[nH]c(=O)c(=O)[nH]c21` showed a melting point greater than 285 °C. In the case of `CC(=O)N1CCN=C1Nc1c(Br)cccc1Br`, the melting point is reported as 182 to 185 °C. `O=C(O)CCCc1ccc(NS(=O)(=O)c2cccc(C(F)(F)F)c2)cn1` gave a melting point of 157 to 159 °C. For `C[C@]1(N2C(=O)c3ccc(CNC(=O)c4ccc(Br)cn4)cc3C2=O)CCC(=O)NC1=O`, the melting point was 260 to 262 °C. `CC(C)CCNCCCN1C(=O)C2(COc3cc4c(cc32)CCO4)c2ccccc21` (configuration not stated) gave a melting point of 98 to 101 °C. `CC(=O)Nc1cc(Cl)cc(Cl)c1` showed a melting point of 182 °C. With `CCOC(=O)C(C(=O)C(F)(F)F)=C(Cc1ccccc1)C(N)C(=O)OCC` (configuration not stated) the melting point was 63 to 65 °C. With `COc1ccc2c(c1)CCC1C2CCC2(C)C(NCCc3cccn3C)CCC12` (configuration not stated) the melting point was 141 to 143 °C. Molecule `CS(=O)(=O)c1ccc(OCCCCl)cc1` has a melting point of 84 to 86 °C. Molecule `CN1CCN(c2ccc(Nc3ncc4c(n3)S/C(=C/c3ccc(F)cc3)C(=O)N4)cc2)CC1` has a melting point of 172 to 175 °C. In the case of `Nc1cc(N2CCN(C34CC5CC(CC(C5)C3)C4)CC2)nc(N)n1`, the melting point is reported as 265 to 268 °C. `COc1c(N(C)S(=O)(=O)c2ccc(C)cc2)ccccc1=O` gave a melting point of 94.5 °C. Molecule `CCOC(=O)c1cn(Cc2ccccc2)nc1OCc1ccc(OCc2nc(-c3ccco3)oc2C)c(Br)c1` has a melting point of 158 to 159 °C. In the case of `Cc1ccccc1-c1ccc(C(=O)N2Cc3ccc(C(=O)NCc4ccccc4C(F)(F)F)n3Cc3ccccc32)cc1C`, the melting point is reported as 126 to 128 °C. `CNC(=S)SCCC(=O)O` gave a melting point of 86 to 87 °C. With `N#Cc1cc2cc(Br)ccc2[nH]c1=O` the melting point was 308 to 311 °C. `Cc1c(-c2ccccc2)oc2c(S(=O)(=O)NCCO)cccc2c1=O` gave a melting point of 186 to 187 °C. `CCC(CC)(c1ccc(F)cc1)c1c[nH]c2c(NS(C)(=O)=O)cccc12` gave a melting point of 137 to 138 °C. In the case of `CCC1C(C)=NN=C(c2ccccc2)c2ccc(OC)cc21` (configuration not stated), the melting point is reported as 162 to 163 °C. Work on `Cc1cc(C)c(-c2nc(C)cc3c2ncn3Cc2ccccc2)c(C)c1` yielded a melting point of 177 to 180 °C. Work on `CCOC(=O)Cc1cccc(C(=O)c2ccccc2)c1NC(C)=O` yielded a melting point of 133 to 134 °C. `CCCCCCCCCCCCCCC(F)CC(NC(C)=O)(C(=O)OCC)C(=O)OCC` (configuration not stated) gave a melting point of 71 to 73 °C. `CC[C@H]1[C@H](O)CN1c1cc2c(cc1F)c(=O)c(C(=O)O)cn2C1CC1` (relative stereo) showed a melting point of 250 to 255 °C. For `Cc1n[nH]c(CCCCn2cnc(NC(N)=NCC(F)(F)F)n2)n1`, the melting point was 175 to 176 °C. `CCCC1C(=O)N(S(=O)(=O)c2ccc3ccccc3c2)C2CCN(S(=O)(=O)CCCN3CCOCC3)C12` (configuration not stated) showed a melting point of 189 to 192 °C. Work on `O=C1C(=O)c2ccccc2C2=C1SCC(CNCCc1ccccc1)O2` (configuration not stated) yielded a melting point of 80 to 82 °C. `CCOC(=O)NC1=NCC(c2ccc(F)cc2)N1C` (configuration not stated) showed a melting point of 117 to 118 °C. Work on `CCCCCCC(C)(C)c1cc(O)c(C2=C(CCO)CCC(C)C2)c(O)c1` (configuration not stated) yielded a melting point of 83 to 86 °C. With `Nc1c(Br)cc(Br)n2nc(SCc3ccccc3)nc12` the melting point was 116 to 118 °C. Work on `COc1ccc2c(c1)c(N1CCN(C)CC1)nn2S(=O)(=O)c1ccccc1` yielded a melting point of 165 to 167 °C. Work on `COC(=O)Cn1c(C(=O)NC(N)=S)c(C)c2cc(C)ccc21` yielded a melting point of 210 to 212 °C. `OCc1cccc2cc(-c3ccccc3)sc12` showed a melting point of 125 to 126 °C. With `CCOC(=O)C(=NOCCBr)c1csc(N)n1` the melting point was 111 to 114 °C. `CCOC(=O)C1=C(C)NC2=C(C(=O)N(CCO)C2)C1c1ccccc1[N+](=O)[O-]` (configuration not stated) gave a melting point of 210 to 211 °C. In the case of `CNc1nnc(C(C)(C)C)s1`, the melting point is reported as 79 to 81 °C. Molecule `CC(=O)Nc1ccc(C(=O)NC(=O)N2CCC(Oc3ccc(Cl)cc3)CC2)cc1` has a melting point of 79 °C. `O=C(O)CCc1cn(Cc2ccc(OCc3ccc4ccccc4n3)cc2)nc1-c1ccc(F)cc1` gave a melting point of 178 to 179 °C. `COc1ccc(C2CCN(c3c(C)c(C)c4c(c3C)C(N3CCc5ccccc5CC3)C(C)(C)O4)CC2)cc1OC` (configuration not stated) showed a melting point of 136 to 138 °C. With `CCC(=O)c1ccc(-c2ccccc2)cc1` the melting point was 98 to 99 °C. `Cc1ccc(OC2SCC(O)C(O)C2O)c(-c2c(C)noc2C)n1` (configuration not stated) showed a melting point of 70 to 84 °C. `CCCN1N=C2C(=Cc3cccc(C(F)(F)F)c3)CSCC2C1c1cccc(C(F)(F)F)c1` (configuration not stated) showed a melting point of 90 to 93.5 °C. Molecule `O=C(O)Cc1ccc2cc(OCc3ccc4ccccc4n3)ccc2c1` has a melting point of 199 to 202 °C. `O=c1oc(-c2ccccc2)cc(O)c1SCCc1ccccc1` showed a melting point of 121 to 124 °C. With `COc1ccc(NN=C(Sc2cccc(Cl)c2)C(C)=O)cc1` the melting point was 132 to 134 °C. For `CCCCCCCCCCCCCCOc1cc(OCCCOc2ccc(OCc3ccccc3)cc2)cc(C(=O)O)c1`, the melting point was 77 to 79 °C. `O=C(O)CNC(=O)Nc1ccc(Cl)cc1` gave a melting point of 218 °C. With `Cc1ccc2nc3n(c(=O)c2c1)-c1ccc(F)cc1C3=O` the melting point was 300 to 301 °C. `N#Cc1cc2c(cc1Br)nc1n2CCC1` gave a melting point of 224 °C. Molecule `O=S(=O)(c1c[nH]c(Br)c1-c1ccc(Cl)cc1)C(F)(F)F` has a melting point of 163 to 165 °C. Work on `CCc1nn(C(C)C)c2cc(C(=O)O)ccc12` yielded a melting point of 160 to 163 °C. `COc1ccc2[nH]c3c(c2c1)C1C(=O)NC(=O)C1C(C(=O)OCc1ccccc1)C3` (configuration not stated) gave a melting point of 179 to 181 °C. Work on `COc1cc(CP(=O)(OC)OC)c2c(CP(=O)(OC)OC)cc(OC)cc2c1` yielded a melting point of 135 to 136 °C. In the case of `CC(Cc1c[nH]c2ccccc12)(NC(=O)OC(CF)C(F)F)C(=O)NCCc1ccccn1` (configuration not stated), the melting point is reported as 65 to 67 °C. `C=C(C(=O)c1ccc(C(=O)OC)cc1)c1cc(OC)c(OC)c(-c2cccs2)c1` gave a melting point of 102 to 103 °C. For `CCCNS(=O)(=O)c1cc(C(=O)CCC(=O)OC)ccc1Cl`, the melting point was 93 to 94 °C. `O=[N+]([O-])c1ccc2oc(CCC(F)(F)F)cc2c1` showed a melting point of 70 to 71 °C. `CC(C)C1(C)N=C(c2ncccc2C(=O)O)N(C#N)C1=O` (configuration not stated) gave a melting point of 150 to 153 °C. Molecule `COC1(OC)C2(Cl)C(Cl)=C(Cl)C1(Cl)C(O)C2O` (configuration not stated) has a melting point of 160 to 162 °C. Molecule `CCn1ncc2c1ncc1c(Cl)nc3ncnn3c12` has a melting point of 196 to 197 °C. `CNC(=O)OC1CC2(CCN(CCCC(=O)c3ccc(F)cc3)C2)c2ccccc21` (configuration not stated) gave a melting point of 167 to 169 °C. Molecule `Cc1[nH]c(/C=C2\C(=O)Nc3ccc(F)cc32)c(C)c1C(=O)NCCCCCC(=O)NO` has a melting point of 210 °C. In the case of `NCCNCCNc1ccc2c3c(nn2CCO)-c2c(O)ccc(O)c2C(=O)c13`, the melting point is reported as 185 to 190 °C. Work on `CC(=O)NC1CCNC(c2cccc(Oc3ccccc3)n2)C1` (configuration not stated) yielded a melting point of 104 to 106 °C. With `O=C1NC(=O)c2ccc(Br)cc2/C1=C/c1cc(Br)c(O)c(Br)c1` the melting point was 167 to 168 °C. `O=C(/C=C/c1ccc(S(=O)(=O)N2CCN(c3ccccc3F)CC2)cc1)NO` showed a melting point of 196 to 197 °C. `COc1ccc(-c2nc(SC(C)C)[nH]c2-c2ccncc2)cc1` showed a melting point of 206 to 210 °C. Work on `COC(=O)c1ccc(Cl)c2nc(C(C)(C)C)oc12` yielded a melting point of 130 to 131 °C. `O=C(O)c1cc(-n2c(-c3ccccc3)cc3c2CCCC3)c(C(F)(F)F)cc1O` showed a melting point of 188 to 190 °C. Work on `O=C1NC(=O)C(Br)(c2ccc(Oc3ccccc3)cc2)C(=O)N1` yielded a melting point of 125 to 127 °C.

Source: a melting point compilation (Tetko et al.; mined from patent text by program, amines drawn as free bases though some values may be those of a salt)
